Measurements taken from patent US11337976B2 (Plexxikon Inc., priority 2011, dated 2022).

Tested on: A375 melanoma cells (B-Raf V600E mutation)
Test: A375 (A375_P-ERK) cell activity / cell growth inhibition assay
Assay type: cell-based, human
Settings: Homo sapiens, A-375; A375 cells (text: A375_P-ERK)
Description: Compounds are assessed in a variety of cell based assays. For example human cell lines with B-RafV600E mutation (A375 melanoma, SKMEL3 melanoma, and COLO205 colon adenocarcinoma), as well as tumorigenic cell lines with wild-type B-RAF (SW620 colon adenocarcinoma) or with Ras mutations (SKMEL2 melanoma and IPC298 melanoma).
On day 1, cells are counted, then centrifuged in a conical tube for 5 minutes at 1000 rpm.
On day 2, compound at a maximum concentration of 5 mM is serially diluted 1:3 (e.g. 10 μL with 30 μL dimethyl sulfoxide) for a total of 8 point titration with DMSO as a control. A 1 μL aliquot of each dilution point and control is added to 249 μL growth media and 50 μL is added to a well containing cells, providing 10 μM compound at the maximum concentration point. The cells are incubated for 3 days at 37° C. in 5% CO2.
ATPlite is added 25 μL to each well, shake for 2 minutes, and the cells are incubated at room temperature for 10 minutes, then luminescence is read on Safire reader. The measured luminescence correlates directly with cell number, such that the reading as a function of compound concentration is used to determine the IC50 value.

| IC50 [µM] | SMILES |
| --- | --- |
| < 1 | COc1ncc(-c2cnc3[nH]cc(C(=O)c4cccc(NS(=O)(=O)N5CCCC5)c4F)c3c2)c(OC)n1 [P-0044, N-[3-[5-(2,4-dimethoxypyrimidin-5-yl)-1H-pyrrolo[2,3-b]pyridine-3-carbonyl]-2-fluoro-phenyl]pyrrolidine-1-sulfonamide] |
| < 1 | Cc1ccc(-c2cnc3[nH]cc(C(=O)c4cccc(NS(=O)(=O)N5CCCC5)c4F)c3c2)cn1 [P-0045, N-[2-fluoro-3-[5-(6-methyl-3-pyridyl)-1H-pyrrolo[2,3-b]pyridine-3-carbonyl]phenyl]pyrrolidine-1-sulfonamide] |
| < 1 | CC(C)c1ncc(-c2cnc3[nH]cc(C(=O)c4cccc(NS(=O)(=O)N5CCCC5)c4F)c3c2)cn1 [P-0047, N-[2-fluoro-3-[5-(2-isopropylpyrimidin-5-yl)-1H-pyrrolo[2,3-b]pyridine-3-carbonyl]phenyl]pyrrolidine-1-sulfonamide] |
| < 1 | COc1cc(-c2cnc3[nH]cc(C(=O)c4cccc(NS(=O)(=O)N5CCCC5)c4F)c3c2)ccc1C#N [P-0049, N-[3-[5-(4-cyano-3-methoxy-phenyl)-1H-pyrrolo[2,3-b]pyridine-3-carbonyl]-2-fluoro-phenyl]pyrrolidine-1-sulfonamide] |
| < 1 | N#CC1(c2ccc(-c3cnc4[nH]cc(C(=O)c5cccc(NS(=O)(=O)N6CCCC6)c5F)c4c3)cc2)CC1 [P-0050, N-[3-[5-[4-(1-cyanocyclopropyl)phenyl]-1H-pyrrolo[2,3-b]pyridine-3-carbonyl]-2-fluoro-phenyl]pyrrolidine-1-sulfonamide] |
| < 1 | CC(C)c1ncc(-c2cnc3[nH]cc(C(=O)c4cccc(NS(=O)(=O)N(C)C)c4F)c3c2)cn1 [P-0051, 3-[3-(dimethylsulfamoylamino)-2-fluoro-benzoyl]-5-(2-isopropylpyrimidin-5-yl)-1H-pyrrolo[2,3-b]pyridine] |
| < 1 | CN(C)S(=O)(=O)Nc1cccc(C(=O)c2c[nH]c3ncc(-c4cnc(C5CC5)nc4)cc23)c1F [P-0052, 5-(2-cyclopropylpyrimidin-5-yl)-3-[3-(dimethylsulfamoylamino)-2-fluoro-benzoyl]-1H-pyrrolo[2,3-b]pyridine] |
| < 1 | CN(C)S(=O)(=O)Nc1cccc(C(=O)c2c[nH]c3ncc(-c4ccc(C(F)(F)F)nc4)cc23)c1F [P-0053, 3-[3-(dimethylsulfamoylamino)-2-fluoro-benzoyl]-5-[6-(trifluoromethyl)-3-pyridyl]-1H-pyrrolo[2,3-b]pyridine] |
| < 1 | COc1cc(-c2cnc3[nH]cc(C(=O)c4cccc(NS(=O)(=O)N(C)C)c4F)c3c2)ccc1C#N [P-0054, 5-(4-cyano-3-methoxy-phenyl)-3-[3-(dimethylsulfamoylamino)-2-fluoro-benzoyl]-1H-pyrrolo[2,3-b]pyridine] |
| < 1 | CN(C)S(=O)(=O)Nc1cccc(C(=O)c2c[nH]c3ncc(-c4ccc(C5(C#N)CC5)cc4)cc23)c1F [P-0055, 5-[4-(1-cyanocyclopropyl)phenyl]-3-[3-(dimethylsulfamoylamino)-2-fluoro-benzoyl]-1H-pyrrolo[2,3-b]pyridine] |
| < 1 | CCN(C)S(=O)(=O)Nc1cccc(C(=O)c2c[nH]c3ncc(-c4cnc(C)nc4)cc23)c1F [P-0056, 3-[3-[[ethyl(methyl)sulfamoyl]amino]-2-fluoro-benzoyl]-5-(2-methylpyrimidin-5-yl)-1H-pyrrolo[2,3-b]pyridine] |
| < 1 | CCN(C)S(=O)(=O)Nc1cccc(C(=O)c2c[nH]c3ncc(-c4cnc(C(C)C)nc4)cc23)c1F [P-0057, 3-[3-[[ethyl(methyl)sulfamoyl]amino]-2-fluoro-benzoyl]-5-(2-isopropylpyrimidin-5-yl)-1H-pyrrolo[2,3-b]pyridine] |
| < 1 | CCN(C)S(=O)(=O)Nc1cccc(C(=O)c2c[nH]c3ncc(-c4cnc(C5CC5)nc4)cc23)c1F [P-0058] |
| < 1 | CCN(C)S(=O)(=O)Nc1cccc(C(=O)c2c[nH]c3ncc(-c4ccc(C(F)(F)F)nc4)cc23)c1F [P-0059, 3-[3-[[ethyl(methyl)sulfamoyl]amino]-2-fluoro-benzoyl]-5-[6-(trifluoromethyl)-3-pyridyl]-1H-pyrrolo[2,3-b]pyridine] |
